Reference: patent US12577241B2, “Polycyclic pyridopyrazine derivative” (Shionogi & Co., Ltd., priority 2019, dated 2026)

Key:
[1] = system: HIV; assay: Test Example 1: Anti-HIV activity (MT-4 cells, CellTiter-Glo); format: cell-based; conditions: Human immunodeficiency virus 1, MT4, 96 h, 4 days culture, CellTiter-Glo luminescence, read-out: EC50 (50% HIV inhibitory concentration)
Protocol: Test Example 1: Anti-HIV Activity
Serial dilutions of a test sample were prepared in a 384-well microplate by a dispensing machine. 6.25×10^4 cells/mL of a MT-4 cell suspension was dispensed at 20 μL/well to the plate containing the test sample. Then, an HIV virus solution was dispensed at 20 μL/well. The plate was mixed with a plate mixer and cultured for 4 days in a CO2 incubator. On day 4 of culture, CellTiter-Glo or CellTiter-Glo 2.0 was dispensed at 20 μL/well. The plate was reacted while being stirred with the plate mixer at room temperature for about 15 minutes. The amount of luminescence of the plate after the reaction was measured with a microplate reader. A 50% HIV inhibitory concentration (EC50) was determined from a concentration-dependent curve using the following 4 parameter logistic curve fitting model. y=A+((B−A)/(1+((C/x)^D))) • A=minimum rate of inhibition (negative control, 0%) • B=maximum rate of inhibition (positive control, 100%) • C=compound concentration at an inflection point • D=slope coefficient • x=compound concentration • y=rate of inhibition (%) (Results)

[2] = system: HIV mutant strains (E92Q/E138T/G140S/Q148H); assay: Test Example 2: Resistance evaluation test (HeLa-CD4 cells, wild and mutant strain); format: cell-based; conditions: 3 days
Protocol: Test Example 2: Resistance Evaluation Test
Serial dilutions of a test sample were prepared in a 96-well microplate (50 μL/well). 2.5×10^5 cells/mL of a HeLa-CD4 cell suspension was dispensed at 100 μL/well to the plate containing the test sample. Then, an HIV virus solution (wild strain and mutant strain) was dispensed at 50 μL/well. The plate was mixed with a plate mixer and cultured for 3 days in a CO2 incubator. The culture supernatant in each well was removed by suction. A cell lysis buffer was dispensed at 100 μL/well, and the plate was frozen in a freezer (−80° C.). The plate frozen in a freezer was thawed at room temperature, then mixed with a plate mixer, and centrifuged at 1,200 rpm for 5 minutes. Beta-Glo Reagent was dispensed at 20 μL/well to a 384-well microplate, 2 μL of the supernatant of each well (diluted as necessary) of the plate after centrifugation was added, and then the mixture was reacted at room temperature for about 30 minutes. The amount of luminescence of the plate after the reaction was measured with a microplate reader. A 50% HIV inhibitory concentration (EC50) was determined from a concentration-dependent curve using the following 4 parameter logistic curve fitting model. y=A+((B−A)/(1+((C/x)^D))) • A=minimum rate of inhibition (negative control, 0%) • B=maximum rate of inhibition (positive control, 100%) • C=compound concentration at an inflection point • D=slope coefficient • x=compound concentration • y=rate of inhibition (%)
The degree of resistance (fold change (FC)) of each mutant strain was calculated according to the following expression. • FC=EC50 of the mutant strain/EC50 of the wild strain (Results)

[3] = system: HIV; assay: Test Example 14: Anti-HIV activity evaluation test in presence of human serum protein; format: cell-based; conditions: MT-4 cells; PS=4×(EC50 with 25% human serum protein/EC50 without); 100% extrapolated value
Protocol: Test Example 14: Anti-HIV Activity Evaluation Test in Presence of Human Serum Protein
Serial dilutions of a test sample were prepared in a 384-well microplate by a dispensing machine. A human serum protein solution (human serum protein concentration 50%) was dispensed at 20 μL/well to a 384-well microplate containing the test sample and left to stand still at room temperature for 1 hour. A culturing solution was dispensed at 20 μL/well to a plate for the absence of serum. 1 mL of 3.0×10^6 cells/mL of MT-4 cells and a 300 μL HIV virus solution were mixed and reacted at 37° C. for 1 hour. After the reaction, the cell suspension was centrifuged to discard the supernatant, the infected cells were dispersed in 40 mL of a culturing solution and the resultant solution was dispensed at 20 μL/well to a 384-well microplate containing the test sample and the human serum protein (human serum protein final concentration: 25%). The plate was mixed with a plate mixer and cultured for 4 days in a CO2 incubator. On day 4 of culture, CellTiter-Glo or CellTiter-Glo 2.0 was dispensed at 20 μL/well. The plate was reacted while being stirred with the plate mixer at room temperature for about 15 minutes. The amount of luminescence of the plate after the reaction was measured with a microplate reader. […]
The potency shift (PS) was calculated on the basis of the following calculation formula. […]

[4] = Test Example 7: Metabolism stability test; format: in vitro ADME; conditions: human liver microsomes 0.5 mg protein/mL, 30 minutes, 37° C., NADPH, compound concentration 0.5 μmol/L
Protocol: Test Example 7: Metabolism Stability Test Commercially available pooled human liver microsomes were reacted with the compound of the present invention for a given time. A residual rate was calculated by the comparison between the reacted sample and an unreacted sample to evaluate the degree at which the compound of the present invention was metabolized in the liver. The compound was reacted at 37° C. for 0 minutes or 30 minutes in the presence of 1 mmol/L NADPH in 0.2 mL of a buffer solution (50 mmol/L Tris-HCl pH 7.4, 150 mmol/L potassium chloride, and 10 mmol/L magnesium chloride) containing 0.5 mg protein/mL of the human liver microsomes (oxidative reaction). After the reaction, 50 μL of the reaction solution was added to 100 μL of a solution of methanol/acetonitrile=1/1 (v/v), and the mixture was mixed and centrifuged at 3000 rpm for 15 minutes. The compound of the present invention in the centrifugation supernatant was quantified by LC/MS/MS or solid-phase extraction (SPE)/MS. The amount of the compound of the present invention remaining after the reaction was calculated with the amount of the compound at 0 minutes of the reaction defined as 100%.

[5] = target: T1, CYP3A4 (Homo sapiens, UniProt P08684); assay: Test Example 4: CYP3A4 (MDZ) MBI test; format: in vitro ADME; conditions: pooled human liver microsomes, midazolam 1-hydroxylation, IC 0 min preincubation/IC 30-min preincubation
T1 construct: pooled human liver microsomes, 0.5 mg/mL for the prereaction; from tissue; host or cells: pooled human liver microsomes
T1 sequence (P08684 whole entry): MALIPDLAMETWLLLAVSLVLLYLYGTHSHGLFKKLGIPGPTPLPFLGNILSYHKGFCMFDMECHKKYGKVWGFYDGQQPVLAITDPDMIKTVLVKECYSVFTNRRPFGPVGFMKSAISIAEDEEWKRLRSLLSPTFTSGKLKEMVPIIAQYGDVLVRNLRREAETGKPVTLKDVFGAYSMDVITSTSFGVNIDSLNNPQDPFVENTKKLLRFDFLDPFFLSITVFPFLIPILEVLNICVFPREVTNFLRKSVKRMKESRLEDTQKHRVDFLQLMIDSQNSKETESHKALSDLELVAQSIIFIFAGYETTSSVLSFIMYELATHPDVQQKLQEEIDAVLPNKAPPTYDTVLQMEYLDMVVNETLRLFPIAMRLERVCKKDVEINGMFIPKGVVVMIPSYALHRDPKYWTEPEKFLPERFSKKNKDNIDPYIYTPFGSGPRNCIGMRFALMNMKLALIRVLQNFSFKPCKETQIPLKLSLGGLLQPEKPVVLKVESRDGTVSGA
Protocol: Test Example 4: CYP3A4 (MDZ) MBI Test
This test as to the inhibition of CYP3A4 by the compound of the present invention is to evaluate mechanism based inhibition (MBI) ability from enhancement in inhibitory effect, caused by a metabolism reaction, of the compound of the present invention. CYP3A4 inhibition was evaluated using pooled human liver microsomes by 1-hydroxylation reaction of midazolam (MDZ) as a marker reaction. […]
The pooled human liver microsomes and a solution of the compound of the present invention were added according to the recipe of the prereaction described above into a K-Pi buffer solution (pH 7.4) as a prereaction solution in a 96-well plate. […] After centrifuged at 3000 rpm for 15 minutes, 1-hydroxymidazolam in the supernatant was quantified by LC/MS/MS.
Only a solvent DMSO used for dissolving the compound was added to the reaction solution instead of the compound of the present invention, and the mixture was used as a control (100%). Remaining activity (%) at the time of the addition of the compound of the present invention at each concentration was calculated, and IC was calculated by inverse estimation based on a logistic model using the concentrations and the rates of suppression. A shifted IC value is calculated from IC from the 0 min preincubation/IC from the 30-min preincubation. […]

[6] = target: T2, Nav 1.5 channel (Homo sapiens, UniProt Q14524); assay: Test Example 13: Nav test; format: cell-based; conditions: HEK cells expressing Nav 1.5 channel, INa, whole cell patch clamp, relative to vehicle
T2 construct: expressed in transfected cells; host or cells: HEK cells
T2 sequence (Q14524 whole entry): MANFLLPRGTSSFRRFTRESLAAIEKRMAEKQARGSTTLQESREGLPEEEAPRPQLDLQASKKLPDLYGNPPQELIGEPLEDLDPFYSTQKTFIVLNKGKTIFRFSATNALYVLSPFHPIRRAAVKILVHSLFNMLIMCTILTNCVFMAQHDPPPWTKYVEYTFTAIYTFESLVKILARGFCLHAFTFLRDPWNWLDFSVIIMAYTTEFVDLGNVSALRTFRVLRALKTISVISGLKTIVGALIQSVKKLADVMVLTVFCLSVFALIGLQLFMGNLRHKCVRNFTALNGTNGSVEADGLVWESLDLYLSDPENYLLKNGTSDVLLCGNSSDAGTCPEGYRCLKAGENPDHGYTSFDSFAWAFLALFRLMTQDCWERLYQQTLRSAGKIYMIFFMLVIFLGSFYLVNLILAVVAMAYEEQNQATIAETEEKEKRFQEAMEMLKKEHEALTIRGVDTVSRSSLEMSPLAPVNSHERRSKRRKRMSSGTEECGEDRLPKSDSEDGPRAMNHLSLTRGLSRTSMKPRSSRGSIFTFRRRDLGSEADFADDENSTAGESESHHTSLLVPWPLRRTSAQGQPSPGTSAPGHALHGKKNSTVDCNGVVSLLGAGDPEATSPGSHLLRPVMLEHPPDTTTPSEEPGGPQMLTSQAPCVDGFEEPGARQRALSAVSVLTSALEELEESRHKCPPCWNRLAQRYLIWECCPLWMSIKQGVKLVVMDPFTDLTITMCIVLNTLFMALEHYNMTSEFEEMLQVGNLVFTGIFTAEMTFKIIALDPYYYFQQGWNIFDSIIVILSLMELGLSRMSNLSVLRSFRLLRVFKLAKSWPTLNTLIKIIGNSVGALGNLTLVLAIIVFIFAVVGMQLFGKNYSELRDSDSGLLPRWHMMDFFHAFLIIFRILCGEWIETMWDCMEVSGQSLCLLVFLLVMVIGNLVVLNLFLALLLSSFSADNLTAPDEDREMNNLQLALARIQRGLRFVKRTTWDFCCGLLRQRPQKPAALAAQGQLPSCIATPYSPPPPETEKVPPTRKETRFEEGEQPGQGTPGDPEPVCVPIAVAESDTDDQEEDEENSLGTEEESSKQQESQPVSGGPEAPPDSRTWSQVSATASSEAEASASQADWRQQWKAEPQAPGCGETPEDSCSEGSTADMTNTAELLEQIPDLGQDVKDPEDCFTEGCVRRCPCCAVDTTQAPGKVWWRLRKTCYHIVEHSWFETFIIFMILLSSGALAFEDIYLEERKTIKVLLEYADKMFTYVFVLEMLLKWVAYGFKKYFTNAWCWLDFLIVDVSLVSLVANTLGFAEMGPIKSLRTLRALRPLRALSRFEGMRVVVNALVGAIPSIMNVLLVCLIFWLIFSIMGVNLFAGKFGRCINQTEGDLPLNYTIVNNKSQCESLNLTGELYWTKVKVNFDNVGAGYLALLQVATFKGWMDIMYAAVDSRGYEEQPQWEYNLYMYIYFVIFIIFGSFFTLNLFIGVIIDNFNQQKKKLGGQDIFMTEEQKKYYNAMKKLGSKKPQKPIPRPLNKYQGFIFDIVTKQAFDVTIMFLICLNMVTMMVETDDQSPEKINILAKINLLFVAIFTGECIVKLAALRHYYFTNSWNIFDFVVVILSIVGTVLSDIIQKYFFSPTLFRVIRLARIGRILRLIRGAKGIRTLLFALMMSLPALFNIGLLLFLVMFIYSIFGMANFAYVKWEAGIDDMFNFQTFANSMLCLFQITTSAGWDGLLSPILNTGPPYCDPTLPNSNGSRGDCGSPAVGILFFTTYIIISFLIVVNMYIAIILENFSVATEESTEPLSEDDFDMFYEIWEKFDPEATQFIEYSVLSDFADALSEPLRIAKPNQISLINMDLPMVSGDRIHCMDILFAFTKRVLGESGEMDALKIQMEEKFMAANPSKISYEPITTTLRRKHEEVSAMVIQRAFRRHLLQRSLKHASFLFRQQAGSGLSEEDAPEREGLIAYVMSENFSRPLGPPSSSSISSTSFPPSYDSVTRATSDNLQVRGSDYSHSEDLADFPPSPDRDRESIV
From the text: Test Example 13: Nav Test
For the purpose of assessing proarrhythmic risk of the compound of the present invention, effects of the compound of the present invention on Na^+ current (INa), which plays an important role in the myocardial depolarization process, was studied using HEK cells expressing Voltage gated sodium channel (Nav 1.5 channel) encoded by SCNSA gene.
After a cell was retained at a membrane potential of −100 mV by the whole cell patch clamp method using an automated patch clamp system (QPatch; Sophion Bioscience A/S), INa induced by depolarization pulse stimulation at −10 mV for 20 milliseconds was recorded. An extracellular fluid (NaCl: 145 mmol/L, KCl 4 mmol/L, CaCl2: 2 mmol/L, MgCl2: 1 mmol/L, glucose: 10 mmol/L, HEPES (4-(2-hydroxyethyl)-1-piperazineethanesulfonic acid): 10 mmol/L, tetraethylammonium hydroxide (TEA): 10 mmol/L, pH=7.4) adjusted to 0.3% with dimethyl sulfoxide was used as a vehicle to apply the vehicle and the extracellular fluid containing the compound of the present invention dissolved at a concentration of interest to the cells under conditions of room temperature for 5 minutes or longer. From the obtained INa, the absolute value of the maximum peak current based on the current value at the membrane potential where the cells have been kept was measured using analytical software (QPatch Assay software; Sophion Bioscience A/S). The ratio of the maximum peak current at the time of applying the compound of the present invention to the maximum peak current at the time of applying the vehicle and the electric charge amount at the time of applying the compound of the present invention with respect to the electric charge amount at the time of applying vehicle were calculated, and the influence of the compound of the present invention on INa was evaluated.

For `CCN1C(=O)c2c(O)c(=O)c(-c3nnc(Cc4ccc(F)cc4F)s3)cn2[C@H]2CCC[C@H]21` [Compound I-020], the EC50 [1] was 5 nM, the “FC (fold change, degree of resistance) = EC50 of the mutant strain/EC50 of the wild strain” value [2] was 7.7 and the “Potency shift (PS) in the presence of human serum protein” value [3] was 29. It also gave a Remaining rate [4] of 74.6%.

In the case of `CCN1C(=O)c2c(O)c(=O)c(-c3nnc(Cc4ccc(F)cc4F)s3)cn2[C@@H]2[C@H]1CCCC2(F)F` [Compound I-022], the EC50 [1] is reported as 5.3 nM, the “Shifted IC grade (mechanism based inhibition)” value [5] is reported as “(−) (shifted IC of 1.0 or less is graded as negative (−))” and the “electric charge amount increase rate” value [6] is reported as 137%. For the same molecule, the “maximum current amount increase rate” value [6] was 93.1%.
